Patent US20090300800A1, “D-Amino Acid a Selectable Marker for Barley (Hordeum Vulgare L.) Transformation” (BASF Plant Science GmbH, priority 2005, published 2009)
Several values for one entry are separate records, joined by “and”; a condition that tells them apart may be missing. Identical values can stand only once.

What was measured:
[1] = tested on: wild-type plants; conditions: plants not expressing D-amino acid oxidase; cited from earlier work
[2] = tested on: immature embryos from spring barley variety Golden Promise; assay: In vitro germination bioassay of immature embryos on medium with D-serine or D-alanine; format: cell-based, barley (Hordeum vulgare L.); conditions: for Immature Embryos (%) germinated in vitro: scored after 14 days; for concentration lethal in the bioassay: immature embryo germination; for concentration above which seedlings were susceptible to the selection: seedlings from embryos isolated without endosperms
Procedure: In order to establish effective concentrations of D-Serine and D-Alanine on inhibiting growth of tissue cultured barley cells, a bioassay system using immature embryos was applied. Immature embryos from spring barley variety Golden Promise 2 mm in length were dissected onto germination PAW-5 hormone free medium with D-serine or D-alanine in range of concentrations between 0 and 5 mM and maintained at 25° C. with a 16 h photoperiod. The number of germinated embryos with well-developed shoots and brunched roots were scored after 14 days.

[3] = tested on: immature embryos / embryogenic callus from Golden Promise; assay: Agrobacterium-mediated barley transformation with pRLM167 or pRLM205 (dsdA, dao1, PAT), PAB media, selection on D-Serine or bialaphos; format: cell-based, barley (Hordeum vulgare L.)
[4] = tested on: immature embryos / embryogenic callus from Golden Promise; assay: Agrobacterium-mediated barley transformation with pRLM166 (dsdA), PAW media, selection on D-Serine; format: cell-based, barley (Hordeum vulgare L.); conditions: construct pRLM166, selection 5 mM D-Serine
[5] = 0.5 mM in PAW-5 hormone free medium
[6] = 1 mM in PAW-5 hormone free medium
[7] = 2 mM in PAW-5 hormone free medium
[8] = 5 mM in PAW-5 hormone free medium
[9] = construct pRLM167, selection 5 mM D-Serine or 5 mg/l bialaphos

Row | SMILES | toxicity to wild-type plants [1] | Immature Embryos (%) germinated in vitro [2, 5] [%] | Immature Embryos (%) germinated in vitro [2, 6] [%] | Immature Embryos (%) germinated in vitro [2, 7] [%] | Immature Embryos (%) germinated in vitro [2, 8] [%] | concentration lethal in the bioassay [2] [mM] | concentration above which seedlings were susceptible to the selection [2] | TE % (Transformation Efficiency, % of transgenic plants out of the explants) [3, 9] [%] | TE % (Transformation Efficiency, % of transgenic plants out of the explants) ([3]; construct pRLM205 (dao1), selection 5 mM D-Serine) [%] | TE % (Transformation Efficiency, % of transgenic plants out of the explants) [4]
1 | C[C@@H](N)C(=O)O [D-alanine] | highly phytoptoxic to plants | 37 | 0 | 0 | 0 | 1 | > 1 mM | – | – | –
2 | CC[C@@H](C)[C@@H](N)C(=O)O [D-isoleucine] | not toxic to wild-type plants | – | – | – | – | – | – | – | – | –
3 | N[C@H](CO)C(=O)O [D-serine] | highly phytoptoxic to plants | 49 | 17 | 0 | 0 | 2 | higher than 2 mM | 4.6 | 3.6 | 2.2% and 2.1%
4 | CC(C)[C@@H](N)C(=O)O [D-valine] | not toxic to wild-type plants | – | – | – | – | – | – | – | – | –
5 | C[C@H](NC(=O)[C@H](C)NC(=O)[C@@H](N)CCP(C)(=O)O)C(=O)O [bialaphos] | – | – | – | – | – | – | – | 3.4 | – | –
